The assay has as its system 3T3-L1 cells. Nature of the assay: Adipogenesis: differentiation of 3T3-L1 cells into adipocytes, oil red-O staining. Format: cell-based, mouse. As to conditions: 10 days. From the text: It is reported here for the first time that capsaicin is a potent inhibitor of adipogenesis. The accepted model for the process of adipogenesis is the differentiation of mouse-derived 3T3-L1 fibroblasts into adipocytes after treatment with potent inducers such as dexamethasone, isobutyrylmethylxanthine, and insulin. In this model, the adipocytes are identified by the accumulation of lipid droplets in the cytoplasm. We tested the effect of the presence or absence of capsaicin on this process.
NIH 3T3-L1 cells were obtained from American Type Culture Collection (Manassas, Va.). NIH 3T3-L1 cells are a mouse-derived fibroblast cell line that convert into adipocytes under certain conditions. This cell system is well known in the art and is a standard model for the study of adipocyte metabolism. The cells were cultured using well known methods in complete medium (Dulbecco Modified Eagle's Medium (DMEM) (4500 mg glucose/liter) containing 10% fetal bovine serum (FBS)). When the cells were 75% confluent, they were subcultured into multi-well culture plates and allowed to grow to confluency. The differentiation of the cells into adipocytes was initiated by switching to inducing medium (complete medium containing 10 uM dexamethasone, 0.5 mM isobutyrylmethylxanthine, and 10 ug/ml insulin). 1 ug/ml and 0.5 ug/ml doses of capsaicin were added to a number of the culture wells. After 48 hours, the inducing medium was replaced with maintenance medium 1 (complete medium containing insulin (10 ug/ml) with or without capsaicin). After 24 hours, the cells were switched to maintenance medium 2 (complete medium with or without capsaicin). The cultures were followed for up to 10 days for differentiation into adipocytes. The culture medium was replaced every 2 days with a medium of similar composition. The cells were photographed every 2 days to follow their progress. On day 10, the cells were stained with oil red-O (to stain for intracellular lipid) and photographed.

As to `COc1cc(CNC(=O)CCCC/C=C/C(C)C)ccc1O` [capsaicin, trans-8-methyl-N-vanillyl-6-nonenamide], where the note is “0.5 ug/ml and 1 ug/ml”, the differentiation into adipocytes result is listed as “did not become adipocytes”. In addition, the “lipid accumulation (oil red-O stain)” value is recorded as “significant decrease in lipid accumulation” (0.5 ug/ml, FIG. 2) and “significant decrease in lipid accumulation” (1 ug/ml, FIG. 3).

The values above are taken from patent publication US20090148546A1, “Methods and compounds fo rthe treatment of obesity and obesity-related disorders” (priority 2005, published 2009).
